# Assays:
# Transporter, GABA = Transporter, GABA (Rattus norvegicus, UniProt P23978); assay: Eurofins panel 226400; type: binding
# Phorbol Ester = assay: Eurofins panel 264500; type: binding, mouse; conditions: 10 µM
# Estrogen ERα = Estrogen ERα (Homo sapiens, UniProt P03372); assay: Eurofins panel 226010; type: binding
# Bradykinin B2 = Bradykinin B2 (Homo sapiens, UniProt P30411); assay: Eurofins panel 212620; type: binding
# [1] = target: Leukotriene, Cysteinyl CysLT1 (Homo sapiens, UniProt Q9Y271); assay: Eurofins panel 250460; type: binding
# Sequence of Leukotriene, Cysteinyl CysLT1 (Q9Y271 whole entry): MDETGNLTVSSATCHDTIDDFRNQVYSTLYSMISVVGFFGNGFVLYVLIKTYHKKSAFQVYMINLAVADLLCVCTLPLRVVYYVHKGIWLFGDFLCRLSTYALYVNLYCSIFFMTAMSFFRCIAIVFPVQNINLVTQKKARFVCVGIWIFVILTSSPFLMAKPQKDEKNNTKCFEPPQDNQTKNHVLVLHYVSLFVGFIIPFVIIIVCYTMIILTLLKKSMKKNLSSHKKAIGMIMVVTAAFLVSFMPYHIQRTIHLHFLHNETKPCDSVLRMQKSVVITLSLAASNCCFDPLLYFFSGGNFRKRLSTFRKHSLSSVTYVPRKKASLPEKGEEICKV
# HepG2 cells = assay: Phospholipidosis in HepG2 cells; type: cell-based; conditions: 0–100 µM
# LOX = assay: Substrate (putrescine) competition; type: biochemical; design: Fig. 2D activity: scale not given here
# From the text: PXS-4787 competes with a model substrate (putrescine) for the LOX binding site (Fig. 2d). The allylamine of PXS-4787 interacts with the co-factor of the enzyme and elicits mechanism-based inhibition (Fig. 2e). Through careful optimization, and in contrast to BAPN, PXS-4787 selectivity targets lysyl oxidases and is neither an inhibitor of, nor a substrate for, related oxidases (Fig. 2f, g and Supplementary Table S1). Furthermore, PXS-4787 was clean when profiled in a broad panel of macromolecular targets using enzyme and radioligand binding assays (LeadProfilingScreen, Eurofins CEREP Panlabs, 68 assays, test concentration 10 µM; Supplementary Data S1).
# Data are expressed as mean ± SEM. Subsequent statistical analysis was performed with unpaired two-sided Student’s t tests. *p < 0.05, **p < 0.01, ***p < 0.001and ****p < 0.0001. Source data are provided as a Source Data file.
# The measurement of the enzymatic activity of all lysyl oxidase family members was based on the detection of hydrogen peroxide with an Amplex-Red oxidation assay, as previously described; miniaturized in 384 well formats, with the appropriate combination of substrate and assay buffer for each individual enzyme. After a 30 min pre-incubation of the enzyme at 37 °C with the test compound (or with different incubation times for the time-dependency assay), one volume of reaction mixture containing 120 μM Amplex Red (AR) (Life Technologies), 1.5 U/mL horseradish peroxidase (HRP) (Sigma-Aldrich) and the specific substrate was added to each sample. The relative fluorescence units (RFU) were then measured every 2.5 min for 30 min at 37 °C, excitation 565 nm and emission 590, on a BMG Clariostar Microplate Reader. All the substrates were used at concentrations corresponding to their Km towards the corresponding enzyme, or with a range of different concentrations for the substrate competition experiments.
# Endothelin ETB = Endothelin ETB (Homo sapiens, UniProt P24530); assay: Eurofins panel 224110; type: binding
# Dopamine D4.2 = Dopamine D4.2 (Homo sapiens, UniProt P21917, DEL265-296); assay: Eurofins panel 219900; type: binding
# Sequence of Dopamine D4.2 (P21917 with tags, fused parts or gaps DEL265-296): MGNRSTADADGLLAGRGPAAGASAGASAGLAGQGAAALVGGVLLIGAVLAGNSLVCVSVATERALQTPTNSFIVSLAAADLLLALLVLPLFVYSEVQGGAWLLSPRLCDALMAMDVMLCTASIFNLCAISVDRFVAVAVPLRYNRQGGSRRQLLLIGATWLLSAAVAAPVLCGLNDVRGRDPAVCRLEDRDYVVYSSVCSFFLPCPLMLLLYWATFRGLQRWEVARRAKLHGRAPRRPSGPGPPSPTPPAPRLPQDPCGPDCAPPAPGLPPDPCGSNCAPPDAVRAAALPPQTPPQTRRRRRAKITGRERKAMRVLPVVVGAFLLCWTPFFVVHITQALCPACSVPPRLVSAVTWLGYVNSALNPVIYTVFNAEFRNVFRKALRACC
# [2] = target: Epidermal Growth Factor (EGF) (Homo sapiens, UniProt P00533); assay: Eurofins panel 225510; type: binding
# Sequence of Epidermal Growth Factor (EGF) (P00533 25-1210): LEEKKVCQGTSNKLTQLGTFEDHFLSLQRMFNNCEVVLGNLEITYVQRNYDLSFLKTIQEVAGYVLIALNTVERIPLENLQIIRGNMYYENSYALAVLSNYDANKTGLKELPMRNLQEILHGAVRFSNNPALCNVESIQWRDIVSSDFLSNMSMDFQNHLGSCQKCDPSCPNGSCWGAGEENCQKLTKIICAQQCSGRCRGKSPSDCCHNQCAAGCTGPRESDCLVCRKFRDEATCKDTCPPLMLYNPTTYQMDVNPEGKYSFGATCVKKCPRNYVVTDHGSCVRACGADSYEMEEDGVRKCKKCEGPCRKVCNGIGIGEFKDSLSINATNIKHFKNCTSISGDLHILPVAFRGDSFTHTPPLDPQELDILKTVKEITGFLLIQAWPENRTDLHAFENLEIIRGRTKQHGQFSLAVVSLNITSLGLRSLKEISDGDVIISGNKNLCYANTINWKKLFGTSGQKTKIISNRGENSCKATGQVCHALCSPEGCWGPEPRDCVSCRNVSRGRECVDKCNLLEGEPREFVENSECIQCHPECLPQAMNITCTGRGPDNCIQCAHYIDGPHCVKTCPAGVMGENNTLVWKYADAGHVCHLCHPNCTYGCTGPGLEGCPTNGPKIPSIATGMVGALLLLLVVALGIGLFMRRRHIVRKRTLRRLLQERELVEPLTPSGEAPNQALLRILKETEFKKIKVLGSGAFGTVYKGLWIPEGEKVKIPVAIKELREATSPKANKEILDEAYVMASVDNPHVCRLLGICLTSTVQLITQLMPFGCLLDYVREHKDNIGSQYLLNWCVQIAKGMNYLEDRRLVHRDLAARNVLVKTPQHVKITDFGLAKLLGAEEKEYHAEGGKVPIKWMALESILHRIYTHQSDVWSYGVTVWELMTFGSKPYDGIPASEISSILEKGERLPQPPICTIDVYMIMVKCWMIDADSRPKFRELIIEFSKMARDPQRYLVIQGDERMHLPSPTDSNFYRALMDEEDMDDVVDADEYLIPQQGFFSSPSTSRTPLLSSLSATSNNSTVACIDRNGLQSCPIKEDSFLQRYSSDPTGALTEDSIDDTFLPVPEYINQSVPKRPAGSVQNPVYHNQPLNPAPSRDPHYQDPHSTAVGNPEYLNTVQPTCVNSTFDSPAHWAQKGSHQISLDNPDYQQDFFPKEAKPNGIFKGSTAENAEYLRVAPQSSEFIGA
# Vasopressin V1A = Vasopressin V1A (Homo sapiens, UniProt P37288); assay: Eurofins panel 287530; type: binding
# Sequence of Vasopressin V1A (P37288 whole entry): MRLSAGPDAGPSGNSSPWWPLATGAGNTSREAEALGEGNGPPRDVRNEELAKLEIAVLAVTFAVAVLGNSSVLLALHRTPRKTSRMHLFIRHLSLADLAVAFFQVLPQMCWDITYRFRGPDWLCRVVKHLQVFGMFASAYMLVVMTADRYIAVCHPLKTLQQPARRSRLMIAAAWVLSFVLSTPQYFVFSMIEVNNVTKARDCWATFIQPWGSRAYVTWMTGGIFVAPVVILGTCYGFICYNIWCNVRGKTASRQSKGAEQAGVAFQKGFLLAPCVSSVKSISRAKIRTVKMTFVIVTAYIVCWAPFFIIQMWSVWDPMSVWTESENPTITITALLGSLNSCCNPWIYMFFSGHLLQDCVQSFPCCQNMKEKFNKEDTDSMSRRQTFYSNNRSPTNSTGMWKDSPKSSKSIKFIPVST
# [3] = target: Serotonin (5-Hydroxytryptamine) 5-HT1B (Homo sapiens, UniProt P28222); assay: Eurofins panel 271230; type: binding
# Sequence of Serotonin (5-Hydroxytryptamine) 5-HT1B (P28222 whole entry): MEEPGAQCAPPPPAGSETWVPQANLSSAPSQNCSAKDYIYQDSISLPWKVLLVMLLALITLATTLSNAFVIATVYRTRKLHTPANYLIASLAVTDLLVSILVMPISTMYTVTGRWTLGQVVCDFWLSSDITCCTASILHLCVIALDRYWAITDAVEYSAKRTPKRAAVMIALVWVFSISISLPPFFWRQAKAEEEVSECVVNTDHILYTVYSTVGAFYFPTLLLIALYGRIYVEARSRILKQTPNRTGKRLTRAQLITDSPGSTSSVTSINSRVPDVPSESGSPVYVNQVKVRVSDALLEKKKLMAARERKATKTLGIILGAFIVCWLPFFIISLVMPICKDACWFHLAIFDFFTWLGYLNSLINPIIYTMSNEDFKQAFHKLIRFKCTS
# [4] = Franz Cell skin permeability assay; type: in vitro ADME, human; conditions: 3% cream on epidermis of human skin ex vivo
# [5] = target: Cholecystokinin CCK1 (CCKA) (Homo sapiens, UniProt P32238); assay: Eurofins panel 218030; type: binding
# hERG potassium channel = hERG potassium channel (Homo sapiens, UniProt Q12809); assay: Eurofins panel 265910; type: binding; conditions: probe [3H]Dofetilide
# Sequence of hERG potassium channel (Q12809 whole entry): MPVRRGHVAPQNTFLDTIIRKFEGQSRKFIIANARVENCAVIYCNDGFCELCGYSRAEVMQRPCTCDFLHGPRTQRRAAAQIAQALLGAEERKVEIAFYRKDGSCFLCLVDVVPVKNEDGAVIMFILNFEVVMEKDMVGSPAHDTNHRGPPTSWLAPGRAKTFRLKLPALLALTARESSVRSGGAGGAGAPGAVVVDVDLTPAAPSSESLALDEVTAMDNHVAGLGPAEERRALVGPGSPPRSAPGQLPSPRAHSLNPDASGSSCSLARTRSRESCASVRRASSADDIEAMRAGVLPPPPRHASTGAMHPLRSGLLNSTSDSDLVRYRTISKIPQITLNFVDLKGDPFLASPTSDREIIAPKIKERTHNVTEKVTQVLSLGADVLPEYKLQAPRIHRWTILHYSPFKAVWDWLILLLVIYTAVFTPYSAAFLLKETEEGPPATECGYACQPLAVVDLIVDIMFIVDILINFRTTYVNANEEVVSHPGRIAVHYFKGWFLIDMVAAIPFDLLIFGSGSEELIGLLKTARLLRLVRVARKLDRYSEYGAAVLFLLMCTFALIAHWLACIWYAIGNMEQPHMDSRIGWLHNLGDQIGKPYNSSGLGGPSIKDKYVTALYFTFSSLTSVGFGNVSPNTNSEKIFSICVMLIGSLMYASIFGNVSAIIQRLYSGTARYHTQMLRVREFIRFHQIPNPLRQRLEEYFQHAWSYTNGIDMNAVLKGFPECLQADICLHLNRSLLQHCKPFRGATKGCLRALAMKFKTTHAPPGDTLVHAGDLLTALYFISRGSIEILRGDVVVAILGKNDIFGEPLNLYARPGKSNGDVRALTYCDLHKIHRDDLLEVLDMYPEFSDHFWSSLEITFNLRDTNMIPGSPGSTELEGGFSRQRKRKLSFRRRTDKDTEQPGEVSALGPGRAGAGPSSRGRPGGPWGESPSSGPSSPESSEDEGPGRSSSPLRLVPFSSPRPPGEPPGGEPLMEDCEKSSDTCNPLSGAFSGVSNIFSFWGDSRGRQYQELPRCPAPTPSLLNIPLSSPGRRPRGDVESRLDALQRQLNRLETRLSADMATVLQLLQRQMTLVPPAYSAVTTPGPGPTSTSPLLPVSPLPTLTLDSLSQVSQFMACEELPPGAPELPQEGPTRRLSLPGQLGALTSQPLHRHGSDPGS
# [6] = tested on: deep-dermal contact burn scar; assay: Porcine burn injury model with tensile strength testing; type: in vivo, pig
# Caco-2 permeability = type: in vitro ADME; conditions: human, Caco-2
# Experimental: (§1) The penetration of PXS-6302 across a monolayer of cells was tested using Caco-2 or MDCKII cells transfected with P-glycoprotein (Pgp).
# Caco-2 cells = assay: Caco-2 permeability; type: in vitro ADME
# Experimental: as §1
# Sequence of Bradykinin B2 (P30411 whole entry): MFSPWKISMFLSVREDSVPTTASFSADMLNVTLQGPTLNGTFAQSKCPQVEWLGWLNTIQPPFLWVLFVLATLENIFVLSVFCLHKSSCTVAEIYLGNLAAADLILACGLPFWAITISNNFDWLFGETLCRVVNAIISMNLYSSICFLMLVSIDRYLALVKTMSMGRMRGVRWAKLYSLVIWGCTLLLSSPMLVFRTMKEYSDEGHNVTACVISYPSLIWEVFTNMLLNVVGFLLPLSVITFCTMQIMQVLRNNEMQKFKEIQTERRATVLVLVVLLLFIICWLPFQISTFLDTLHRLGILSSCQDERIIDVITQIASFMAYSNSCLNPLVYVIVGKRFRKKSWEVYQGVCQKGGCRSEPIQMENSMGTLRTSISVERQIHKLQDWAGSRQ
# Sequence of Estrogen ERα (P03372 whole entry): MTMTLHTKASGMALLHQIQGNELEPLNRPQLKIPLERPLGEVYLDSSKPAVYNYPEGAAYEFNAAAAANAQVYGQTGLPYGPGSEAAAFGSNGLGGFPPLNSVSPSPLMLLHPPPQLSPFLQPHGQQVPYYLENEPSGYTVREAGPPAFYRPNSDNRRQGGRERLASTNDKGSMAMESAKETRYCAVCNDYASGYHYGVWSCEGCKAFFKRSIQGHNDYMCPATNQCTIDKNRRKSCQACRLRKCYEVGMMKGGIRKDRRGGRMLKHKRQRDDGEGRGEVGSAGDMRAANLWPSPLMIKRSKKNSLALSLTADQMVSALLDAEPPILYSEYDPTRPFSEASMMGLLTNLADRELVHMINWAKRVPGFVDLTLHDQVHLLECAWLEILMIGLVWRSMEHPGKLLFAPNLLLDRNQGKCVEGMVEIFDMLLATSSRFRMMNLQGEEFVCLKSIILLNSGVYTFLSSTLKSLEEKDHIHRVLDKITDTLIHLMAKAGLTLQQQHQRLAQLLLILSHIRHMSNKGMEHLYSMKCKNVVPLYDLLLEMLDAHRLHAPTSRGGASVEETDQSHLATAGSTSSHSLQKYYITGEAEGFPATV
smiles,measurement,setting,value
NC/C=C(\F)CS(=O)(=O)c1ccccc1 [PXS-4787],inhibition at 10 µM,"Transporter, GABA",0%
same,% Inh.,Phorbol Ester,5%
same,inhibition at 10 µM,Estrogen ERα,3%
same,inhibition at 10 µM,Bradykinin B2,5%
same,inhibition at 10 µM,[1],-3%
same,phospholipidosis score,HepG2 cells,0
same,competition with model substrate putrescine for the LOX binding site,LOX,competes
same,Fig. 2D activity,"LOX; 5.65e-10, putrescine 1.1 mM",89.58
same,Fig. 2D activity,"LOX; 5.65e-10, putrescine 3.3 mM",93.22
same,Fig. 2D activity,"LOX; 5.65e-10, putrescine 10 mM",98.29
same,Fig. 2D activity,"LOX; 5.65e-10, putrescine 30 mM",96.57
same,Fig. 2D activity,"LOX; 5.65e-10, putrescine 90 mM",93.38
same,Fig. 2D activity,"LOX; 1.69e-9, putrescine 1.1 mM",84.4
same,Fig. 2D activity,"LOX; 1.69e-9, putrescine 3.3 mM",94.23
same,Fig. 2D activity,"LOX; 1.69e-9, putrescine 10 mM",94.63
same,Fig. 2D activity,"LOX; 1.69e-9, putrescine 30 mM",93.67
same,Fig. 2D activity,"LOX; 1.69e-9, putrescine 90 mM",92.69
same,Fig. 2D activity,"LOX; 5.08e-9, putrescine 1.1 mM",89.54
same,Fig. 2D activity,"LOX; 5.08e-9, putrescine 3.3 mM",93.84
same,Fig. 2D activity,"LOX; 5.08e-9, putrescine 10 mM",97.41
same,Fig. 2D activity,"LOX; 5.08e-9, putrescine 30 mM",96.12
same,Fig. 2D activity,"LOX; 5.08e-9, putrescine 90 mM",91.41
same,Fig. 2D activity,"LOX; 1.52e-8, putrescine 1.1 mM",91.17
same,Fig. 2D activity,"LOX; 1.52e-8, putrescine 3.3 mM",95.49
same,Fig. 2D activity,"LOX; 1.52e-8, putrescine 10 mM",93.57
same,Fig. 2D activity,"LOX; 1.52e-8, putrescine 30 mM",97.83
same,Fig. 2D activity,"LOX; 1.52e-8, putrescine 90 mM",92.34
same,Fig. 2D activity,"LOX; 4.57e-8, putrescine 1.1 mM",81.95
same,Fig. 2D activity,"LOX; 4.57e-8, putrescine 3.3 mM",93.97
same,Fig. 2D activity,"LOX; 4.57e-8, putrescine 10 mM",95.69
same,Fig. 2D activity,"LOX; 4.57e-8, putrescine 30 mM",96.71
same,Fig. 2D activity,"LOX; 4.57e-8, putrescine 90 mM",93.31
same,Fig. 2D activity,"LOX; 1.37e-7, putrescine 1.1 mM",73.72
same,Fig. 2D activity,"LOX; 1.37e-7, putrescine 3.3 mM",89.33
same,Fig. 2D activity,"LOX; 1.37e-7, putrescine 10 mM",93.77
same,Fig. 2D activity,"LOX; 1.37e-7, putrescine 30 mM",94.81
same,Fig. 2D activity,"LOX; 1.37e-7, putrescine 90 mM",93.26
same,Fig. 2D activity,"LOX; 4.12e-7, putrescine 1.1 mM",60.93
same,Fig. 2D activity,"LOX; 4.12e-7, putrescine 3.3 mM",75.9
same,Fig. 2D activity,"LOX; 4.12e-7, putrescine 10 mM",89.23
same,Fig. 2D activity,"LOX; 4.12e-7, putrescine 30 mM",89.28
same,Fig. 2D activity,"LOX; 4.12e-7, putrescine 90 mM",90.74
same,Fig. 2D activity,"LOX; 1.23e-6, putrescine 1.1 mM",32.69
same,Fig. 2D activity,"LOX; 1.23e-6, putrescine 3.3 mM",47.9
same,Fig. 2D activity,"LOX; 1.23e-6, putrescine 10 mM",67.1
same,Fig. 2D activity,"LOX; 1.23e-6, putrescine 30 mM",81.21
same,Fig. 2D activity,"LOX; 1.23e-6, putrescine 90 mM",86.37
same,Fig. 2D activity,"LOX; 3.7e-6, putrescine 1.1 mM",11.17
same,Fig. 2D activity,"LOX; 3.7e-6, putrescine 3.3 mM",19.92
same,Fig. 2D activity,"LOX; 3.7e-6, putrescine 10 mM",38.7
same,Fig. 2D activity,"LOX; 3.7e-6, putrescine 30 mM",60.57
same,Fig. 2D activity,"LOX; 3.7e-6, putrescine 90 mM",76.61
same,Fig. 2D activity,"LOX; 1.11e-5, putrescine 1.1 mM",3.35
same,Fig. 2D activity,"LOX; 1.11e-5, putrescine 3.3 mM",6.43
same,Fig. 2D activity,"LOX; 1.11e-5, putrescine 10 mM",14.18
same,Fig. 2D activity,"LOX; 1.11e-5, putrescine 30 mM",32.4
same,Fig. 2D activity,"LOX; 1.11e-5, putrescine 90 mM",57.08
same,Fig. 2D activity,"LOX; 3.33e-5, putrescine 1.1 mM",-0.5
same,Fig. 2D activity,"LOX; 3.33e-5, putrescine 3.3 mM",1.53
same,Fig. 2D activity,"LOX; 3.33e-5, putrescine 10 mM",3.65
same,Fig. 2D activity,"LOX; 3.33e-5, putrescine 30 mM",9.04
same,Fig. 2D activity,"LOX; 3.33e-5, putrescine 90 mM",24.08
same,Fig. 2D activity,"LOX; 0.0001, putrescine 1.1 mM",-0.9
same,Fig. 2D activity,"LOX; 0.0001, putrescine 3.3 mM",-0.36
same,Fig. 2D activity,"LOX; 0.0001, putrescine 10 mM",0.174
same,Fig. 2D activity,"LOX; 0.0001, putrescine 30 mM",1.46
same,Fig. 2D activity,"LOX; 0.0001, putrescine 90 mM",4.82
same,inhibition at 10 µM,Endothelin ETB,3%
same,inhibition at 10 µM,Dopamine D4.2,1%
same,inhibition at 10 µM,[2],1%
NC/C=C(\F)C(F)(F)S(=O)(=O)c1ccccc1 [PXS-6302],inhibition at 30 µM,Vasopressin V1A,3%
same,inhibition at 30 µM,[3],-3%
same,further increase of concentration in reservoir chamber over the next 14 h,[4],10 fold
same,increase of concentration in reservoir chamber between 2 and 6 h,[4],10 fold
same,inhibition at 30 µM,[5],1%
same,inhibition at 30 µM,hERG potassium channel,29%
same,"tensile strength, treated vs control scars",[6]; 3% cream,no significant differences
same,scar photo score by blinded plastic surgeons vs placebo,[6]; 3% cream once daily from re-epithelialisation to 2 months post-injury,significantly better
same,treated scars with lower Young's modulus than matched vehicle treated scar,"[6]; 3% cream, p = 0.15",5/6
same,efflux ratio,Caco-2 permeability; read-out: CaCo2 efflux ratio,0.8
same,Papp,Caco-2 permeability; read-out: CaCo2 permeability Papp,34 ×10⁻⁶ cm/s
same,CaCo2 permeability (class in words),Caco-2 cells,High and high permeability
